Results on 2 molecules are retold here after article PMC11597817, “Modulation of Multispecific Transporters by Uncaria tomentosa Extract and Its Major Phytoconstituents” (Pharmaceutics, 2024).

Where two headings read alike, the source gives them in different places.

For one series, the target named is T1, MDR1 (Homo sapiens, UniProt P08183).
T1 construct: The cDNA encoding respective transporters were synthetized and cloned by GenScript; host or cells: HEK293 (lentiviral transduction), membrane vesicles
T1 sequence (P08183 whole entry): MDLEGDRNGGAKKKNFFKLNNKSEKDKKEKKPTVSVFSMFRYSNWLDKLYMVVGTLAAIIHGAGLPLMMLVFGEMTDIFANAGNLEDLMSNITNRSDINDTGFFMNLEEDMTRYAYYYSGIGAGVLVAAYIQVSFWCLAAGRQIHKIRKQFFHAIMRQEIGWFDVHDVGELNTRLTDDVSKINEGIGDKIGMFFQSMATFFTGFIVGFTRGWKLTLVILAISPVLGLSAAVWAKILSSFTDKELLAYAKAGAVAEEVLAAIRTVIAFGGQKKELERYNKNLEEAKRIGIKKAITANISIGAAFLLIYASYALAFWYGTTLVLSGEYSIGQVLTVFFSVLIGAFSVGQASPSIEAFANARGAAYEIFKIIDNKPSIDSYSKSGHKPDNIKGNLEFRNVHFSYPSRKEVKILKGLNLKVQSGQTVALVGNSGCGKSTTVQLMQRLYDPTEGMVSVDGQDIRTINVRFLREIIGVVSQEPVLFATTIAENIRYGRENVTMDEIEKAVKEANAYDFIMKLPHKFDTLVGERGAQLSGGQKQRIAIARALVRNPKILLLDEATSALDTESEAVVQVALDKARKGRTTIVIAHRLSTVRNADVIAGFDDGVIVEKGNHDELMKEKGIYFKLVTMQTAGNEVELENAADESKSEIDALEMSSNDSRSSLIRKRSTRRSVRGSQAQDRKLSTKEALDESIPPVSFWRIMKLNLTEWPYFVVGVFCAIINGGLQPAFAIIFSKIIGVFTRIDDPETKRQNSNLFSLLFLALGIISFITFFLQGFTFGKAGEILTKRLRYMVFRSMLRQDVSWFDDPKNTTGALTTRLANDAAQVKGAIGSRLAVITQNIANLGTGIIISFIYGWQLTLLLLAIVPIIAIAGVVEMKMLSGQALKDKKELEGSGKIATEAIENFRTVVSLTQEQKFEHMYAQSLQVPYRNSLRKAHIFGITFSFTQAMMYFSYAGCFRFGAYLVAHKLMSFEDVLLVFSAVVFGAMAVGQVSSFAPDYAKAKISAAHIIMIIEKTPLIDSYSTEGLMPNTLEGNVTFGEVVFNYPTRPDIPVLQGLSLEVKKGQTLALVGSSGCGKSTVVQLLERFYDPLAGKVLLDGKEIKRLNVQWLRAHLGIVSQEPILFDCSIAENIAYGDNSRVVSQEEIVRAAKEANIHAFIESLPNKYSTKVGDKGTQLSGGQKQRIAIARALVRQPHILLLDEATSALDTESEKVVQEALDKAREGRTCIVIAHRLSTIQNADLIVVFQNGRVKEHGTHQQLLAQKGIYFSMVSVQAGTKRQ
The series is described as follows: Vesicular transport inhibition assay, MDR1 membrane vesicles. It is filed as biochemical. Conditions: for Igut/IC50 ratio: MDR1, Igut = dose/250 mL, 500 mg dose of UT extract, ICH M12 cut-off 10; for IC50: oxindole alkaloids, substrate NMQ, read-out: IC50 (95% CI of IC50). An excerpt: (§1) The human embryonic kidney 293 (HEK293) cell line was purchased from Invitrogen/ThermoFisher (Waltham, MA, USA). Madin–Darby canine kidney II (MDCKII) wild type cells were obtained from the European Collection of Authenticated Cell Cultures (ECACC catalog no. 00062107). HEK293 cells overexpressing the human uptake OATP1B1 (NCBI Reference Sequence: NM_006446.4), OATP1B3 (NM_019844), OATP2B1 (NM_007256), OATP1A2 (NM_134431), OAT1-3 (BC033682.1; NM_006672.3; BC022387), OCT1-3 (BC126364.1; NM_003058; NM_021977), OCTN1 (NM_003059.3), NTCP (NM_003049.3), MATE1 (NM_018242.3), MATE2K (NM_001099646.2), ENT4 (NM_001040661.1), SGLT2 (AJ133127.1), ASCT1/2 (NM_003038.5; NM_005628.3), LAT1/2 (NM_003486.6; NM_012244.4), and THTR1/2 (NM_006996; NM_025243) and mock and human efflux BCRP (NM_004827.2), BSEP (NM_003742.2), MDR1 (NM_000927.4), and MRP1-5 (NM_004996; NM_000392.4; BC137347.1; NM_005845.4; NM_005688.2) transporters as well as MDCKII overexpressing human ENT1/2 (NM_001078177; NM_001532.2) and URAT1 (BC053348) transporters were created by lentiviral transduction. The cDNA encoding respective transporters were synthetized and cloned by GenScript (Piscataway, NJ, USA). The production of lentivirus supernatants, the transduction of the cells, cloning, functional characterization, and validation were performed by Charles River Laboratories Hungary Kft. (Budapest, Hungary).
(§2) Membrane vesicles were prepared from ABC transporter-overexpressing HEK293 cells by Charles River Laboratories Hungary Kft. as described previously in detail. Vesicles were frozen in liquid nitrogen and stored at −80 °C.
(§3) Vesicular transport inhibition assays were performed using a rapid filtration technique. In brief, the appropriate amount of the protein of each membrane vesicle was mixed with either the extract or isopteropodine, mitraphylline, or uncarine D at one concentration or with their half dilution series from 150 µg/mL or from 100 µM, the suitable transporter substrate, and the assay buffer on ice. Reaction mixtures were preincubated for 15 min at 37 °C with shaking at 250 rpm. Following preincubation, 4 mM Mg-ATP or AMP was added and incubated according to Table S3. Vesicular transport was terminated by adding an ice-cold washing buffer, and the reaction mix was transferred to a MSFBN6B10 filter plate (Merck) for filtration. The filter plates were then dried at 40 °C for 4 h, and radiolabeled substrates retained in the vesicles were detected by liquid scintillation counting as described above. For fluorescent substrates, accumulation was measured with a Clariostar^plus microplate reader (BMG Labtech GmbH, Ortenberg, Germany).
(§4) The transporter-mediated uptake and ATP-dependent transport were determined by subtracting the activity of the control cell/transporter abundant-membrane in the presence of AMP from the activity of the transporter-overexpressing cell/transporter-abundant membrane in the presence of ATP. The relative transporter-specific accumulation was expressed as the percent of DMSO activity. The results were presented as the mean ± SEM from 3 parallels. More than a 20% reduction in transport activity was considered as inhibition. For the IC50 determination, dose–response curves were fitted using a 4-parameter nonlinear model in GraphPad Prism version 9.0. Confidence intervals (CIs) of 95% were also determined.
(§5) Table S3 – Vesicular transport inhibition assay details.
These parameters were set during previous validations. TC: taurocholic acid, E3S: estrone 3 -sulfate,
NMQ: N-methyl-quinidine, E217βG: β-Estradiol 17-(β-D-glucuronide), DHEAS:
Dehydroepiandrosterone sulfate, CDCF: 5(6)-Carboxy-2',7-dichlorofluorescein B.
Parental Transporter Incubation Substrate Substrate µg Incubation
cell time (min) concentration membrane/ temperature

The subject of series [1] is pregnane X receptor (PXR). Particulars: cited from earlier work.
In the next series the target is T2, BCRP (Homo sapiens, UniProt Q9UNQ0).
T2 construct: The cDNA encoding respective transporters were synthetized and cloned by GenScript; host or cells: HEK293 (lentiviral transduction), membrane vesicles
T2 sequence (Q9UNQ0 1-655): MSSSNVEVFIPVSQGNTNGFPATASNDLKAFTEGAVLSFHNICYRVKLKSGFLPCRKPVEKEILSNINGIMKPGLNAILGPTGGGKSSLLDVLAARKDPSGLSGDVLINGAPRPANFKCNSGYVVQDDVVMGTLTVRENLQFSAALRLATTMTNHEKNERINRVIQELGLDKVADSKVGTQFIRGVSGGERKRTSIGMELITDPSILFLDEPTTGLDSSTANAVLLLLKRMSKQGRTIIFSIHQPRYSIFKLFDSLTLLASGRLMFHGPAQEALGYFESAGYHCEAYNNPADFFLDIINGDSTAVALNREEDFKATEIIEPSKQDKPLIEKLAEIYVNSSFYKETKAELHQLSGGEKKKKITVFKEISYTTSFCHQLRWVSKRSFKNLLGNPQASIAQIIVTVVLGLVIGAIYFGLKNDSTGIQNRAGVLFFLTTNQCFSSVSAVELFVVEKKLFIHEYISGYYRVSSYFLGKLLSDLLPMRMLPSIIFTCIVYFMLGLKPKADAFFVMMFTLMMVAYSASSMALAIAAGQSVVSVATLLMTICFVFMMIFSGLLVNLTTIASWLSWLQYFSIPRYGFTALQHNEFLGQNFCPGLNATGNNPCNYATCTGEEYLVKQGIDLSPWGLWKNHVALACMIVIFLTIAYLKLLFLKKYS
The series is described as follows: Vesicular transport inhibition assay, BCRP membrane vesicles. It is filed as biochemical. Particulars: for Igut/IC50 ratio: BCRP, Igut = dose/250 mL, 500 mg dose of UT extract, ICH M12 cut-off 10; for IC50: oxindole alkaloids, substrate E3S, read-out: IC50 (95% CI of IC50).
From the text: as §1, §2, §3, §4, §5
These parameters were set during previous validations. TC: taurocholic acid, E3S: estrone 3 -sulfate, […]

In the case of `COC(=O)C1=CO[C@@H](C)[C@@H]2CN3CC[C@@]4(C(=O)Nc5ccccc54)[C@@H]3C[C@H]12` [isopteropodine], the “inhibitory effect on transporter-specific transport” value on MDR1 (100 µM alkaloid) is reported as “significantly inhibited”. The Igut/IC50 ratio at MDR1 is recorded as less than 10; on MDR1 (listed as Isopteropodine) it was 0.82; at BCRP it was less than 10; on BCRP (listed as Isopteropodine), 0.42. Also, the values for the IC50 at MDR1, at BCRP (listed as Isopteropodine) and on BCRP were 28.2 µM, 54.6 µM and 54.6 µM, respectively. Further, the PXR activation result in series [1] is “PXR activators”.
With `COC(=O)C1=CO[C@@H](C)[C@H]2CN3CC[C@]4(C(=O)Nc5ccccc54)[C@@H]3C[C@H]12` [mitraphylline], the Igut/IC50 ratio on MDR1 and on BCRP was less than 10 in each case. In addition, the transporter-mediated substrate accumulation result on MDR1 (in the presence of the alkaloid (100 µM, Figure 4)) is “below 50%”. For the same molecule, the concentration for half-maximal inhibition (IC50) on MDR1 (listed as Mitraphylline) and on MDR1 was 28.3 µM in each case. In addition, the PXR activation result in series [1] is “PXR activators”.
